Laboratory results taken from patent US20230219931A1, “FUSED HETEROARYL HYDROXAMATES AS STING AGONISTS” (BiSiChem Co., Ltd., priority 2022, published 2023).

System: ISG reporter activity in THP1-Dual cell
Assay: ISG reporter assay
Assay type: cell-based
Conditions: Homo sapiens, compounds incubated with cells for 24 hours, QUANTI-Blue, absorbance at 655 nm

EC50 [nM]	Structure (SMILES)
< 50	CCn1nc(C)cc1C(=O)Nc1nc2cc(C(N)=O)cc(OC)c2n1C/C=C/Cn1c(NC(=O)c2cc(C)nn2CC)nc2cc(C(N)=O)cc(OCC#CCC3CCN(C(=O)C4CCN(C(=O)OC(C)(C)C)CC4)CC3)c21 [Example 46, tert-butyl (E)-4-(4-(4-((5-carbamoyl-1-(4-(5-carbamoyl-2-(1-ethyl-3-methyl-1H-pyrazole-5-carboxamido)-7-methoxy-1H-benzo[d]imidazol-1-yl)but-2-en-1-yl)-2-(1-ethyl-3-methyl-1H-pyrazole-5-carboxamido)-1H-benzo[d]imidazol-7-yl)oxy)but-2-yn-1-yl)piperidine-1-carbonyl)piperidine-1-carboxylate]
< 50	CCn1nc(C)cc1C(=O)Nc1nc2cc(C(N)=O)cc(OC)c2n1C/C=C/Cn1c(NC(=O)c2cc(C)nn2CC)nc2cc(C(N)=O)cc(OCC#CCC3CCN(C(=O)N4CCN(C(=O)OC(C)(C)C)CC4)CC3)c21 [Example 47, tert-butyl (E)-4-(4-(4-((5-carbamoyl-1-(4-(5-carbamoyl-2-(1-ethyl-3-methyl-1H-pyrazole-5-carboxamido)-7-methoxy-1H-benzo[d]imidazol-1-yl)but-2-en-1-yl)-2-(1-ethyl-3-methyl-1H-pyrazole-5-carboxamido)-1H-benzo[d]imidazol-7-yl)oxy)but-2-yn-1-yl)piperidine-1-carbonyl)piperazine-1-carboxylate]
< 50	CCn1nc(C)cc1C(=O)Nc1nc2cc(C(N)=O)cc(OC)c2n1C/C=C/Cn1c(NC(=O)c2cc(C)nn2CC)nc2cc(C(N)=O)cc(OCC#CCC3CCN(S(=O)(=O)C4CC4)CC3)c21 [Example 48, (E)-1-(4-(5-carbamoyl-2-(1-ethyl-3-methyl-1H-pyrazole-5-carboxamido)-7-methoxy-1H-benzo[d]imidazol-1-yl)but-2-en-1-yl)-7-((4-(1-(cyclopropylsulfonyl)piperidin-4-yl)but-2-yn-1-yl)oxy)-2-(1-ethyl-3-methyl-1H-pyrazole-5-carboxamido)-1H-benzo[d]imidazole-5-carboxamide]
< 50	CCn1nc(C)cc1C(=O)Nc1nc2cc(C(N)=O)cc(OC)c2n1C/C=C/Cn1c(NC(=O)c2cc(C)nn2CC)nc2cc(C(N)=O)cc(OCC#CCC3CCN(S(=O)(=O)N4CCN(C(=O)OC(C)(C)C)CC4)CC3)c21 [Example 49, tert-butyl (E)-4-((4-(4-((5-carbamoyl-1-(4-(5-carbamoyl-2-(1-ethyl-3-methyl-1H-pyrazole-5-carboxamido)-7-methoxy-1H-benzo[d]imidazol-1-yl)but-2-en-1-yl)-2-(1-ethyl-3-methyl-1H-pyrazole-5-carboxamido)-1H-benzo[d]imidazol-7-yl)oxy)but-2-yn-1-yl)piperidin-1-yl)sulfonyl)piperazine-1-carboxylate]
< 50	CCn1nc(C)cc1C(=O)Nc1nc2cc(C(N)=O)cc(OC)c2n1C/C=C/Cn1c(NC(=O)c2cc(C)nn2CC)nc2cc(C(N)=O)cc(OCC#CCC3CN(C(=O)OC(C)(C)C)C3)c21 [Example 50, tert-butyl (E)-3-(4-((5-carbamoyl-1-(4-(5-carbamoyl-2-(1-ethyl-3-methyl-1H-pyrazole-5-carboxamido)-7-methoxy-1H-benzo[d]imidazol-1-yl)but-2-en-1-yl)-2-(1-ethyl-3-methyl-1H-pyrazole-5-carboxamido)-1H-benzo[d]imidazol-7-yl)oxy)but-2-yn-1-yl)azetidine-1-carboxylate]
< 50	CCn1nc(C)cc1C(=O)Nc1nc2cc(C(N)=O)cc(OC)c2n1C/C=C/Cn1c(NC(=O)c2cc(C)nn2CC)nc2cc(C(N)=O)cc(OCC#CCC3CCN(C(=O)OC(C)(C)C)C3)c21 (stereo not shown) [Example 51, tert-butyl (E)-3-(4-((5-carbamoyl-1-(4-(5-carbamoyl-2-(1-ethyl-3-methyl-1H-pyrazole-5-carboxamido)-7-methoxy-1H-benzo[d]imidazol-1-yl)but-2-en-1-yl)-2-(1-ethyl-3-methyl-1H-pyrazole-5-carboxamido)-1H-benzo[d]imidazol-7-yl)oxy)but-2-yn-1-yl)pyrrolidine-1-carboxylate]
< 50	CCn1nc(C)cc1C(=O)Nc1nc2cc(C(N)=O)cc(OC)c2n1C/C=C/Cn1c(NC(=O)c2cc(C)nn2CC)nc2cc(C(N)=O)cc(OCC#CCC3CCCN(C(=O)OC(C)(C)C)C3)c21 (stereo not shown) [Example 52, tert-butyl (E)-3-(4-((5-carbamoyl-1-(4-(5-carbamoyl-2-(1-ethyl-3-methyl-1H-pyrazole-5-carboxamido)-7-methoxy-1H-benzo[d]imidazol-1-yl)but-2-en-1-yl)-2-(1-ethyl-3-methyl-1H-pyrazole-5-carboxamido)-1H-benzo[d]imidazol-7-yl)oxy)but-2-yn-1-yl)piperidine-1-carboxylate]
